The target of the assay is T1, PARP3 (Homo sapiens, UniProt Q9Y6F1).
T1 construct: made in house; host or cells: insect cells (Sf9 or High-Five), baculovirus, pFASTBAC-1
T1 sequence (Q9Y6F1 1-533): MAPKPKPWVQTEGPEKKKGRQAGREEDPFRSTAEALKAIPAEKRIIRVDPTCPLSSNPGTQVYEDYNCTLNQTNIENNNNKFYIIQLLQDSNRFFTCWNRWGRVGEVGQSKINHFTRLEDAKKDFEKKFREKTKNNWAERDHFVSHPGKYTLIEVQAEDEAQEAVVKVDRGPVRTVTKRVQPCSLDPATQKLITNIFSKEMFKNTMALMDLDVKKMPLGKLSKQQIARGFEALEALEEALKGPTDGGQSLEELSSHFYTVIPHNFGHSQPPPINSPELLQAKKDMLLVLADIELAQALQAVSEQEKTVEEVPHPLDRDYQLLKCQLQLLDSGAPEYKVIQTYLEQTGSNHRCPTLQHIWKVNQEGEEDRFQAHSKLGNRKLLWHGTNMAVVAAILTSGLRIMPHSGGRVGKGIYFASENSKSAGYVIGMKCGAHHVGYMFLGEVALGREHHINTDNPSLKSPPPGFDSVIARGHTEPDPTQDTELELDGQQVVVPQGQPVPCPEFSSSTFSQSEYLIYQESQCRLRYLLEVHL
Nature of the assay: PARP inhibition assay, selectivity PARP2 versus PARP3. In kind it is biochemical. Conditions: PARP2 compared with PARP3 as printed. Here is the method:
Assay Systems for Determining the Activity of PARP2 and PARP3 and the Inhibitory Action of Effectors on PARP1, PARP2 and PARP3
Various concentrations were used to construct a dose-effect plot to determine the Ki value of an inhibitor. Values are obtained in triplicate for a particular inhibitor concentration. Arithmetic means are determined using Microsoft© Excel. The IC50 is determined using the Microcal© Origin Software (Vers. 5.0) (“Sigmoidal Fit”). Conversion of the IC50 value is calculated in this way into Ki values took place by using “calibration inhibitors”.
The “calibration inhibitors” were also measured in each analysis. The Ki values of the “calibration inhibitors” were determined in the same assay system by analysis of the Dixon diagram in the manner familiar to the skilled worker.
Measurement was then possible after 30 minutes (up to 4 hours). The measurement took place in a “discovery HTRF microplate analyzer” (Canberra Packard Instruments). The Ki values were calculated as described for the ELISA.

SMILES strings stand for the structures.

For the compound `O=c1[nH]nc(CNc2ccc(O)cc2)c2ccccc12` [4-(N-(4-hydroxyphe-nyl)aminomethyl)-(2H)-dihydrophthalazine-1-one], the “selectivity for PARP2 over PARP3” value is listed as “eight times”.

Values taken from patent US9051553B2, “Poly(ADP-ribose) polymerase genes” (AbbVie Deutschland GmbH & Co. KG, priority 1998, dated 2015).
